# Test results published in patent publication US20240228504A1, “SUBSTITUTED TRICYCLIC AMIDES, ANALOGUES THEREOF, AND METHODS USING SAME” (Arbutus Biopharma Corporation, priority 2020, published 2024).
# System: HBV rcDNA in HepDE19 cells
# Experiment: HepDE19 assay with bDNA quantitation of HBV rcDNA
# Type: cell-based, hepatitis B virus
# Conditions: HepDE19 assay, inhibition of rcDNA formation, bDNA quantitation; read-out: DE-19bDNA EC50
row,Compound,EC50
1,"CN(C(=O)c1cc2ccc(Cl)cn2c1)C1CNCc2[nH]c(=O)c3cc(F)c(F)cc3c21 (single isomer, unassigned) [Compound 122, 6-Chloro-N-(8,9-difluoro-6-oxo-1,2,3,4,5,6-hexahydrobenzo[c][1,7]naphthyridin-1-yl)-N-methylindolizine-2-carboxamide]",1200 nM
2,"CN(C(=O)c1cc2c(F)cc(F)cc2[nH]1)C1COCc2[nH]c(=O)c3cc(F)ccc3c21 (single isomer, unassigned) [Compound 36, 4,6-Difluoro-N-(8-fluoro-6-oxo-1,4,5,6-tetrahydro-2H-pyrano[3,4-c]isoquinolin-1-yl)-N-methyl-1H-indole-2-carboxamide]",20 nM
3,"CN(C(=O)c1cc2c(C(F)F)cc(F)cc2[nH]1)C1CNCc2[nH]c(=O)c3cc(F)ccc3c21 (single isomer, unassigned) [Compound 259, 4-(Difluoromethyl)-6-fluoro-N-(8-fluoro-6-oxo-1,2,3,4,5,6-hexahydrobenzo[c][1,7]naphthyridin-1-yl)-N-methyl-1H-indole-2-carboxamide]",5100 nM
4,"CN(C(=O)c1cc2c(F)c(F)ccc2[nH]1)C1COCc2[nH]c(=O)c3cc(F)ccc3c21 (single isomer, unassigned) [Compound 38, 4,5-Difluoro-N-(8-fluoro-6-oxo-1,4,5,6-tetrahydro-2H-pyrano[3,4-c]isoquinolin-1-yl)-N-methyl-1H-indole-2-carboxamide]",10 nM
5,"CN(C(=O)c1cc2c(F)c(F)ccc2[nH]1)C1COCc2[nH]c(=O)c3cc(F)ccc3c21 (single isomer, unassigned) [Compound 37, 4,5-Difluoro-N-(8-fluoro-6-oxo-1,4,5,6-tetrahydro-2H-pyrano[3,4-c]isoquinolin-1-yl)-N-methyl-1H-indole-2-carboxamide]",700 nM
6,"CN(C(=O)c1ccc(-c2cccc(F)c2)cc1)C1CNCc2[nH]c(=O)c3cc(F)c(F)cc3c21 (single isomer, unassigned) [Compound 302, N-(8,9-Difluoro-6-oxo-1,2,3,4,5,6-hexahydrobenzo[c][1,7]naphthyridin-1-yl)-3′-fluoro-N-methyl-[1,1′-biphenyl]-4-carboxamide]",1060 nM
7,"CN(C(=O)c1cc2c(C(F)F)c(F)ccc2[nH]1)C1CNCc2[nH]c(=O)c3cc(F)c(F)cc3c21 (single isomer, unassigned) [Compound 265, N-(8,9-Difluoro-6-oxo-1,2,3,4,5,6-hexahydrobenzo[c][1,7]naphthyridin-1-yl)-4-(difluoromethyl)-5-fluoro-N-methyl-1H-indole-2-carboxamide]",20 nM
8,"CN(C(=O)c1cc(F)c(Cl)c(F)c1)C1CNCc2[nH]c(=O)c3cc(F)c(F)cc3c21 (single isomer, unassigned) [Compound 168, 4-Chloro-N-(8,9-difluoro-6-oxo-1,2,3,4,5,6-hexahydrobenzo[c][1,7]naphthyridin-1-yl)-3,5-difluoro-N-methylbenzamide]",11300 nM
9,"CN(C(=O)c1cc2ccc(C(F)F)cn2c1)C1CNCc2[nH]c(=O)c3cc(F)c(F)cc3c21 (single isomer, unassigned) [Compound 387, N-(8,9-Difluoro-6-oxo-1,2,3,4,5,6-hexahydrobenzo[c][1,7]naphthyridin-1-yl)-6-(difluoromethyl)-N-methylindolizine-2-carboxamide]",11000 nM
10,"CN(C(=O)c1cc2ccc(F)cn2c1)C1CNCc2[nH]c(=O)c3cc(F)c(F)cc3c21 (single isomer, unassigned) [Compound 222, N-(8,9-Difluoro-6-oxo-1,2,3,4,5,6-hexahydrobenzo[c][1,7]naphthyridin-1-yl)-6-fluoro-N-methylindolizine-2-carboxamide]",7070 nM

# Same assay, conditions: Hepatitis B virus, HepDE19, HepDE19 assay, inhibition of rcDNA formation, bDNA quantitation; read-out: DE-19bDNA EC50
row,Compound,EC50
1,"COc1c2ccc(C(=O)N(C)[C@@H]3COCc4[nH]c(=O)c5cc(F)c(F)cc5c43)cc2nn1C(F)F [Compound 367, (S)-N-(8,9-Difluoro-6-oxo-1,4,5,6-tetrahydro-2H-pyrano[3,4-c]isoquinolin-1-yl)-2-(difluoromethyl)-3-methoxy-N-methyl-2H-indazole-6-carboxamide]",4600 nM
2,"CN(C(=O)c1cncc(Cl)c1)[C@@H]1COCc2[nH]c(=O)c3cc(F)c(F)cc3c21 [Compound 84, (S)-5-Chloro-N-(8,9-difluoro-6-oxo-1,4,5,6-tetrahydro-2H-pyrano[3,4-c]isoquinolin-1-yl)-N-methylnicotinamide]",5700 nM
3,"Cc1cc2ccc(C(=O)N(C)[C@@H]3COCc4[nH]c(=O)c5cc(F)c(F)cc5c43)cn2c1 [Compound 277, (S)-N-(8,9-Difluoro-6-oxo-1,4,5,6-tetrahydro-2H-pyrano[3,4-c]isoquinolin-1-yl)-N,2-dimethylindolizine-6-carboxamide]",420 nM
4,"CN(C(=O)c1cc2cc(F)ccc2[nH]1)[C@@H]1CCCc2[nH]c(=O)c3cc(F)c(F)cc3c21 [Compound 480, (R)-N-(8,9-difluoro-6-oxo-1,2,3,4,5,6-hexahydrophenanthridin-1-yl)-5-fluoro-N-methyl-1H-indole-2-carboxamide]",10 nM
5,"CN(C(=O)c1cc2cc(F)c(F)cc2[nH]1)[C@@H]1COCc2nc(OCCO)c3cc(F)c(F)cc3c21 [Compound 317, (S)-N-(8,9-Difluoro-6-(2-hydroxyethoxy)-1,4-dihydro-2H-pyrano[3,4-c]isoquinolin-1-yl)-5,6-difluoro-N-methyl-1H-indole-2-carboxamide]",10 nM
6,"[2H][C@@]1(N(C(=O)c2cc3sc(Cl)cc3[nH]2)[13C]([2H])([2H])[2H])COCc2[nH]c(=O)c3cc(F)c(F)cc3c21 [Compound 516, (S)-2-Chloro-N-(8,9-difluoro-6-oxo-1,4,5,6-tetrahydro-2H-pyrano[3,4-c]isoquinolin-1-yl-1-d)-N-(methyl-^13C-d3)-4H-thieno[3,2-b]pyrrole-5-carboxamide]",10 nM
7,"CN(C(=O)c1cc(-c2ccc(F)cc2)no1)[C@@H]1COCc2[nH]c(=O)c3cc(F)c(F)cc3c21 [Compound 236, (S)-N-(8,9-Difluoro-6-oxo-1,4,5,6-tetrahydro-2H-pyrano[3,4-c]isoquinolin-1-yl)-3-(4-fluorophenyl)-N-methylisoxazole-5-carboxamide]",15100 nM
8,"CN(C(=O)c1c[nH]c(=O)c(Cl)c1)[C@@H]1COCc2[nH]c(=O)c3cc(F)c(F)cc3c21 [Compound 215, (S)-5-Chloro-N-(8,9-difluoro-6-oxo-1,4,5,6-tetrahydro-2H-pyrano[3,4-c]isoquinolin-1-yl)-N-methyl-6-oxo-1,6-dihydropyridine-3-carboxamide]",20100 nM
9,"CN(C(=O)C1Cc2ccccc21)[C@@H]1COCc2[nH]c(=O)c3cc(F)c(F)cc3c21 (stereo partly drawn) [Compound 269, N-((S)-8,9-Difluoro-6-oxo-1,4,5,6-tetrahydro-2H-pyrano[3,4-c]isoquinolin-1-yl)-N-methylbicyclo[4.2.0]octa-1(6),2,4-triene-7-carboxamide]",18600 nM
10,"CN(C(=O)c1ccnc(C(F)F)c1)[C@@H]1COCc2[nH]c(=O)c3cc(F)c(F)cc3c21 [Compound 313, (S)-N-(8,9-Difluoro-6-oxo-1,4,5,6-tetrahydro-2H-pyrano[3,4-c]isoquinolin-1-yl)-2-(difluoromethyl)-N-methylisonicotinamide]",170 nM
11,"CN(C(=O)c1ccc2nccn2c1)[C@@H]1COCc2[nH]c(=O)c3cc(F)c(F)cc3c21 [Compound 306, (S)-N-(8,9-Difluoro-6-oxo-1,4,5,6-tetrahydro-2H-pyrano[3,4-c]isoquinolin-1-yl)-N-methylimidazo[1,2-a]pyridine-6-carboxamide]",420 nM
12,"CN(C(=O)c1ccc(C(F)(F)F)c(=O)[nH]1)[C@@H]1COCc2[nH]c(=O)c3cc(F)c(F)cc3c21 [Compound 247, (S)-N-(8,9-Difluoro-6-oxo-1,4,5,6-tetrahydro-2H-pyrano[3,4-c]isoquinolin-1-yl)-N-methyl-6-oxo-5-(trifluoromethyl)-1,6-dihydropyridine-2-carboxamide]",3870 nM
13,"CN(C(=O)c1cccc(C(F)F)c1)[C@@H]1COCc2[nH]c(=O)c3cc(F)c(F)cc3c21 [Compound 86, (S)-N-(8,9-Difluoro-6-oxo-1,4,5,6-tetrahydro-2H-pyrano[3,4-c]isoquinolin-1-yl)-3-(difluoromethyl)-N-methylbenzamide]",30 nM
14,"CN(C(=O)c1cc2cc(S(C)(=O)=O)ccc2[nH]1)C1CNCc2[nH]c(=O)c3cc(F)c(F)cc3c21 (single isomer, unassigned) [Compound 403, N-(8,9-Difluoro-6-oxo-1,2,3,4,5,6-hexahydrobenzo[c][1,7]naphthyridin-1-yl)-N-methyl-5-(methylsulfonyl)-1H-indole-2-carboxamide]",25000 nM
15,"CN(C(=O)c1cc2c(F)c(F)c(F)cc2[nH]1)[C@@H]1COCc2[nH]c(=O)c3cc(F)c(F)cc3c21 [Compound 97, (S)-N-(8,9-Difluoro-6-oxo-1,4,5,6-tetrahydro-2H-pyrano[3,4-c]isoquinolin-1-yl)-4,5,6-trifluoro-N-methyl-1H-indole-2-carboxamide]",10 nM
16,"CN(C(=O)c1ccc2nccnc2c1)[C@@H]1COCc2[nH]c(=O)c3cc(F)c(F)cc3c21 [Compound 72, (S)-N-(8,9-Difluoro-6-oxo-1,4,5,6-tetrahydro-2H-pyrano[3,4-c]isoquinolin-1-yl)-N-methylquinoxaline-6-carboxamide]",3800 nM
17,"CN(C(=O)c1cc2cc(F)c(F)cc2[nH]1)[C@H]1COCc2[nH]c(=O)c3cc(F)c(F)cc3c21 [Compound 41, N-(8,9-difluoro-6-oxo-1,4,5,6-tetrahydro-2H-pyrano[3,4-c]isoquinolin-1-yl)-5,6-difluoro-N-methyl-1H-indole-2-carboxamide]",2200 nM
18,"CN(C(=O)c1ccn2c(Cl)ccc2c1)[C@@H]1COCc2[nH]c(=O)c3cc(F)c(F)cc3c21 [Compound 373, (S)-3-Chloro-N-(8,9-difluoro-6-oxo-1,4,5,6-tetrahydro-2H-pyrano[3,4-c]isoquinolin-1-yl)-N-methylindolizine-7-carboxamide]",10 nM
